One experiment has as its target T1, Androgen receptor (Homo sapiens, UniProt P10275).
T1 sequence (P10275 whole entry): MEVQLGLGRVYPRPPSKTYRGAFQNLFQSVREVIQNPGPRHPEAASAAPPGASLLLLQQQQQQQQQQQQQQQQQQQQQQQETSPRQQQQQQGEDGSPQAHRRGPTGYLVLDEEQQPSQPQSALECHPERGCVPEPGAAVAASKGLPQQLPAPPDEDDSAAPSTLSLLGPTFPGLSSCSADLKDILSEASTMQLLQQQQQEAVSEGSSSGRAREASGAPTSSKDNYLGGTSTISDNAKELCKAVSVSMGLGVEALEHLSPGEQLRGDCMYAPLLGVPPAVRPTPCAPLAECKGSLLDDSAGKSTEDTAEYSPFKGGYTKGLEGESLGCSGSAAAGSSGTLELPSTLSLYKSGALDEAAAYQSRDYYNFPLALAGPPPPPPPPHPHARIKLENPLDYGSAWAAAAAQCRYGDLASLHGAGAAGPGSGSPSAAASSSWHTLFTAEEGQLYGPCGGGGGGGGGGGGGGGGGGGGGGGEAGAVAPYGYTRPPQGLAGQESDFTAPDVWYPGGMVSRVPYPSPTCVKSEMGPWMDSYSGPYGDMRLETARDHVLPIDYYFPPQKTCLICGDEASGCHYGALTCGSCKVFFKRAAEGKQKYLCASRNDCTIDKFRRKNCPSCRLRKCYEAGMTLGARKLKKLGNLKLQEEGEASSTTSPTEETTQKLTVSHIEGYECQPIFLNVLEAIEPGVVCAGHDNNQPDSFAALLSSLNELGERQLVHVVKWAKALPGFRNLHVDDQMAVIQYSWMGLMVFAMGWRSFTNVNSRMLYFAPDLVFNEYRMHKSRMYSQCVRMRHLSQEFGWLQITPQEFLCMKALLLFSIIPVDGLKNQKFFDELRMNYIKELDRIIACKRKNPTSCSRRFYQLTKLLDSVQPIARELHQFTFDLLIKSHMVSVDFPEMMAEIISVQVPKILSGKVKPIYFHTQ

A further experiment has as its target D(3) dopamine receptor (Homo sapiens, UniProt P35462).
In experiment [1] the target is 3',5'-cyclic-AMP phosphodiesterase 4A (Homo sapiens, UniProt P27815). It is filed as functional.
Sequence of 3',5'-cyclic-AMP phosphodiesterase 4A (P27815 whole entry): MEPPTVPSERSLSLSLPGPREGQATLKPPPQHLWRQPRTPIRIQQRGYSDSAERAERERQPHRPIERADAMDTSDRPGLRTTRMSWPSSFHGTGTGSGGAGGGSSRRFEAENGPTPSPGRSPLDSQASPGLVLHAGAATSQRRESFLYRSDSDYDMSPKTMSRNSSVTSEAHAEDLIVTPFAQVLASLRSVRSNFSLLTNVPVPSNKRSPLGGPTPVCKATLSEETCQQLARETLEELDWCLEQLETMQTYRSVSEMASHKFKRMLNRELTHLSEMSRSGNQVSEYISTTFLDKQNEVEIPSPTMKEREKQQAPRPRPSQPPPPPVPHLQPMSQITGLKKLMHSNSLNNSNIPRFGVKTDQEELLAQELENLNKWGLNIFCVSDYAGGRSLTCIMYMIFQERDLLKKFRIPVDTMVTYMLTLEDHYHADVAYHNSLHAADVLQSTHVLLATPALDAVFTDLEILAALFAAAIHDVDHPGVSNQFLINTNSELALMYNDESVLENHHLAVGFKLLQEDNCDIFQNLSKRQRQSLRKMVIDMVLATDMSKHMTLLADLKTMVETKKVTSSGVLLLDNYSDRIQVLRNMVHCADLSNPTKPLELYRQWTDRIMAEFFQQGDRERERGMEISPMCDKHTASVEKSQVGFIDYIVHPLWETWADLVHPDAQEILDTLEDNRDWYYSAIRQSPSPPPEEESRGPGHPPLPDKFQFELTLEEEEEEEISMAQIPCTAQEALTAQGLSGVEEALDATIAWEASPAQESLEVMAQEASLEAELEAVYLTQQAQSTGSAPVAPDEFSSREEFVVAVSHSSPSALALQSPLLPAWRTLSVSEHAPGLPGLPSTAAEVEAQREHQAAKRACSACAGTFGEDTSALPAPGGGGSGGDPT
Experiment [2] concerns the target Sodium-dependent noradrenaline transporter (Homo sapiens, UniProt P23975).
Experiment [3] concerns the target T2, Type-1 angiotensin II receptor (Homo sapiens, UniProt P30556).
T2 sequence (P30556 whole entry): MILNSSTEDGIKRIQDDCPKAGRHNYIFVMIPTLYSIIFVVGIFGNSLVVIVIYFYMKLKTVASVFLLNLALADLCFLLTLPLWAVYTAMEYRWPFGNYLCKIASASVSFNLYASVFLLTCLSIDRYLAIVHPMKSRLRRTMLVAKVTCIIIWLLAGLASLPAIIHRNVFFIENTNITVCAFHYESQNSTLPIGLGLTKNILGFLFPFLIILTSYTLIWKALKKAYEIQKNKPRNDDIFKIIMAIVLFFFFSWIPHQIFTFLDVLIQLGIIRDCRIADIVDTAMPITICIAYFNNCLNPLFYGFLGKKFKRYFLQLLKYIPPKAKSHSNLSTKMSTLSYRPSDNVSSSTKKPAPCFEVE

Experiment [4] addresses T3, Oxysterols receptor LXR-beta (Homo sapiens, UniProt P55055).
T3 sequence (P55055 whole entry): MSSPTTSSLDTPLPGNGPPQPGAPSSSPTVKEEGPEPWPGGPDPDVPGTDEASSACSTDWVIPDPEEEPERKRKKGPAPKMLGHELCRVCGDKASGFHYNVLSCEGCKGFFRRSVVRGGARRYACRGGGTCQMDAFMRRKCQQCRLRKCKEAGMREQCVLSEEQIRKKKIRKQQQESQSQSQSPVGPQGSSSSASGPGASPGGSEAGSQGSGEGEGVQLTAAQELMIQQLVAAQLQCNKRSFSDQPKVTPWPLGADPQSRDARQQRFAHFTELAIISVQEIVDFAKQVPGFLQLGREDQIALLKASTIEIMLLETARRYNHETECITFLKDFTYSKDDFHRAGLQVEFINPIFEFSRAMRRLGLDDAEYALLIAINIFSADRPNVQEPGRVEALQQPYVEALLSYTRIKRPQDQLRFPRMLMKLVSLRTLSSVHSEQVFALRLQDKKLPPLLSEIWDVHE
It is filed as functional.

In experiment [5] the target is T4, Retinoic acid receptor alpha (Homo sapiens, UniProt P10276).
T4 sequence (P10276 whole entry): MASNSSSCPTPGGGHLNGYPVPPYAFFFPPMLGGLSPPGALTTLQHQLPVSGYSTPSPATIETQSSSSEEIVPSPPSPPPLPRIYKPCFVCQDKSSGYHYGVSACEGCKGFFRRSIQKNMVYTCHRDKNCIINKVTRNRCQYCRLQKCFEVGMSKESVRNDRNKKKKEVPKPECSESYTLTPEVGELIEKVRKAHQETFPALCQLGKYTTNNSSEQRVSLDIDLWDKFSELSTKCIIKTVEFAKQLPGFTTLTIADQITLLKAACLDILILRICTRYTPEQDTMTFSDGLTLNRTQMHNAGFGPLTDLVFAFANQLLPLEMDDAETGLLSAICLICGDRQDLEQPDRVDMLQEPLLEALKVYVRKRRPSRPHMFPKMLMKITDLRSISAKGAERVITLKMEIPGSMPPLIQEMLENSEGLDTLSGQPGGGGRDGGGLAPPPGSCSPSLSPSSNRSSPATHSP
The class given is functional, cell-based.

Experiment [6] addresses T5, Retinoic acid receptor beta (Homo sapiens, UniProt P10826).
T5 sequence (P10826 whole entry): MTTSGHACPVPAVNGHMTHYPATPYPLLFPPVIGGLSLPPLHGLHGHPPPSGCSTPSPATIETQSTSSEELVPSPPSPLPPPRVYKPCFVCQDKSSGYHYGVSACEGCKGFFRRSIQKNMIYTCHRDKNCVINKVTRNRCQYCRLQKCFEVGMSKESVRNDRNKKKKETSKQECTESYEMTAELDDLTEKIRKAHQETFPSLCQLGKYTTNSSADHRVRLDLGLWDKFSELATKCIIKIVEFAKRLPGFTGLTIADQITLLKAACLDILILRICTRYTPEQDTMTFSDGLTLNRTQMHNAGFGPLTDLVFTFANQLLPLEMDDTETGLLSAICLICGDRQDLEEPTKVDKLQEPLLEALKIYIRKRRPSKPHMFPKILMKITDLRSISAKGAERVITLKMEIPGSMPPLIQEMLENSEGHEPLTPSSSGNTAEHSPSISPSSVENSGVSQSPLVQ
It is filed as functional, cell-based.
Also: assay procedure not described here.

Sequence of Sodium-dependent noradrenaline transporter (P23975 whole entry): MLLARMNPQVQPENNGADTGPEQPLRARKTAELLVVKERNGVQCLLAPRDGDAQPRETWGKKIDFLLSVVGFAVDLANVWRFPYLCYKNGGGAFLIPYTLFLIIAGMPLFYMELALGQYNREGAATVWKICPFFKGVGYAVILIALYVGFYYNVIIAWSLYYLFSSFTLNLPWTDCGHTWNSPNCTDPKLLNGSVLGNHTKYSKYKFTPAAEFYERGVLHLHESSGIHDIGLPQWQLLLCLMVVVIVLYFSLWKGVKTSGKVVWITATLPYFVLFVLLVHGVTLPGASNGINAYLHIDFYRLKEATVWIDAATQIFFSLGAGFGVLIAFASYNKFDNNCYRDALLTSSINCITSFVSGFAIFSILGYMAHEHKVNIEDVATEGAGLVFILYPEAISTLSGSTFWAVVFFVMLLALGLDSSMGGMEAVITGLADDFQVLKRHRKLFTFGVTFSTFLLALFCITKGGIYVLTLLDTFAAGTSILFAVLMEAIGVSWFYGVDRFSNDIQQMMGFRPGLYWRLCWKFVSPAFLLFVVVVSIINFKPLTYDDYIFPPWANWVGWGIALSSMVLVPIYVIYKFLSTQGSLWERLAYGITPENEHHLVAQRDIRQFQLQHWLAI
Sequence of D(3) dopamine receptor (P35462 whole entry): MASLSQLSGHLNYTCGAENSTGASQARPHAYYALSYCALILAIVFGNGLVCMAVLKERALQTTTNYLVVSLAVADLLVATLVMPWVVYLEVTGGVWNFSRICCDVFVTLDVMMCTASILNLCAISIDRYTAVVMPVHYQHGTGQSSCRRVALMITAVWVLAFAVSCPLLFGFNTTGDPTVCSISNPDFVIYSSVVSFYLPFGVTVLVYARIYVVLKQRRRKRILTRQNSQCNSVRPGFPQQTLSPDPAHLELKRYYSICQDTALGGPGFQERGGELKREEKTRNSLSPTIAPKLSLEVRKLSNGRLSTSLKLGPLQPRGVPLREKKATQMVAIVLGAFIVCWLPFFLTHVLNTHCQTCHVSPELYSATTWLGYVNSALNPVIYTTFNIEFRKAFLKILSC

The term AC50 denotes the midpoint of the concentration-response curve, whichever way the signal moves. The low end stands for activity at low concentration, the high end for activity only at high concentration. For BIVALIRUDIN, the AC50 (at Androgen receptor; at D(3) dopamine receptor; in experiment [1]; in experiment [2]) was above 30 µM in each case.
Regarding `Nc1nc2ccc(OC(F)(F)F)cc2s1` [RILUZOLE], the AC50 is above 30 µM on D(3) dopamine receptor, above 30 µM in experiment [1] and 2.59 µM in experiment [2].
In experiment [3], `Cc1c(O)c(=O)ccn1C` [DEFERIPRONE] yielded an AC50 above 100 µM.
As to `CC(C)c1c(C(=O)Nc2ccccc2)c(-c2ccccc2)c(-c2ccc(F)cc2)n1CC[C@@H](O)C[C@@H](O)CC(=O)O` [ATORVASTATIN], the AC50 in experiment [4], in experiment [5] and in experiment [6] was above 30 µM each time.
